Results on 24 compounds are retold here after ChEMBL document CHEMBL3046178, “Quantitative Structure-Activity Relationships of Larvicidal N-[5-(Substituted phenyl)-1, 3, 4-thiadiazol-2-yl]-benzamides in the Inhibition of N-Acetylglucosamine Incorporation into a Cultured Integument System” (J Pestic Sci, 1996).

The nature of data set [1]: 1-octanol-water partition co-efficient, log P of the compound. The class given is physicochemical.
Data set [2] concerns Chilo suppressalis. Nature of the data set: Insecticidal activity against Chilo suppressalis (rice stem borer) third-instar larvae assessed as mortality at pI50 after 5 days in presence of piperonyl butoxide. The class given is functional. More on the design: concentration or dose not given beside the values.
The test system of data set [3] is Chilo suppressalis. Nature of the data set: Insecticidal activity against Chilo suppressalis (rice stem borer) third-instar larvae assessed as mortality after 5 days in presence of piperonyl butoxide. The data set is classed as functional.
In data set [4] the test system is Chilo suppressalis. The data set can be described thus: Insecticidal activity against Chilo suppressalis (rice stem borer) third-instar larvae assessed as mortality after 5 days. The class given is functional.
The test system of data set [5] is Chilo suppressalis. Nature of the data set: Insecticidal activity against Chilo suppressalis (rice stem borer) third-instar larvae assessed as mortality at pI50 after 5 days. The data set is classed as functional.
Data set [6] relates to Chilo suppressalis. Nature of the data set: Inhibition of chitin synthesis in 20-hydroxyecdysone-stimulated Chilo suppressalis (rice stem borer) larval integument assessed as inhibition of N-acetyl-{1-14C]-glucosamine at pI50 after 72 hr by liquid scintillation counting. The class given is functional.

The structures appear in SMILES notation.

In general, logP refers to a log measure of how a compound divides between an organic and an aqueous phase. For orientation: mortality means the share of the test organisms that died. Take `COc1cccc(OC)c1C(=O)Nc1nnc(-c2ccc(F)cc2)s1`: the logP in data set [1] came out at 3.5. For the same compound, the mortality with Chilo suppressalis [2] was 14%. In the data set on Chilo suppressalis [3], the pLD50 is recorded as less than 5.

In the case of `COc1ccc(-c2nnc(NC(=O)c3c(OC)cccc3OC)s2)cc1`, the logP in data set [1] came out at 3.56. Further, the mortality with Chilo suppressalis [2] is 0%. Besides, the pLD50 in the data set with Chilo suppressalis [3] was less than 5.

In the case of `O=C(Nc1nnc(-c2ccc(Cl)cc2)s1)c1ccccc1`, the pLD50 with Chilo suppressalis [4] is less than 5.6. In addition, the mortality in the data set on Chilo suppressalis [5] worked out at 0%. The “inhibition (INH)” value in the data set on Chilo suppressalis [6] was 10%.

As for `O=C(Nc1nnc(-c2ccc(Cl)cc2)s1)c1c(F)cccc1F`, the pLD50 with Chilo suppressalis [4] is less than 4.6. In addition, the mortality in the data set with Chilo suppressalis [5] turned out to be 0%. Also, in the data set with Chilo suppressalis [6], the “inhibition (INH)” value was determined as 42%.

In the case of `O=C(Nc1nnc(-c2ccc(Cl)cc2)s1)c1c(Cl)cccc1Cl`, the pLD50 with Chilo suppressalis [4] was less than 5. Further, the mortality with Chilo suppressalis [5] is on record as 5%.

Regarding `Cc1cccc(C)c1C(=O)Nc1nnc(-c2ccc(Cl)cc2)s1`, the pLD50 in the data set on Chilo suppressalis [4] was found to be 5.48.

Compound `COc1cccc(OC)c1C(=O)Nc1nnc(-c2ccc(Cl)cc2)s1` displayed a log partition coefficient (logP) in data set [1] of 3.96. The pLD50 is reported as 5.96 with Chilo suppressalis [4] and less than 5.96 in the data set with Chilo suppressalis [3].

`O=C(Nc1nnc(-c2ccc(Cl)cc2)s1)c1ccccc1F`: in the data set on Chilo suppressalis [4], the pLD50 is listed as less than 4.6. Also, the mortality with Chilo suppressalis [5] is listed as 0%.

Consider `O=C(Nc1nnc(-c2ccc(Cl)cc2)s1)c1ccccc1Cl`, for which, in the data set with Chilo suppressalis [4], the pLD50 was less than 4.6. Also, in the data set on Chilo suppressalis [5], the mortality was 41%. Moreover, the “inhibition (INH)” value in the data set on Chilo suppressalis [6] is listed as 37%.

On to `O=C(Nc1nnc(-c2ccc(Cl)cc2)s1)c1ccccc1Br`, for which the pLD50 with Chilo suppressalis [4] is less than 4.6. For the same compound, in the data set on Chilo suppressalis [5], the mortality came to 0%. Besides, the “inhibition (INH)” value in the data set on Chilo suppressalis [6] is reported as 32%.

`O=C(Nc1nnc(-c2ccc(Cl)cc2)s1)c1ccccc1I`: the pLD50 in the data set with Chilo suppressalis [4] is recorded as less than 4.6. In the data set with Chilo suppressalis [5], the mortality was 5%. In the data set on Chilo suppressalis [6], the “inhibition (INH)” value is reported as 17%.

As for `O=C(Nc1nnc(-c2ccc(Cl)cc2)s1)c1ccccc1C(F)(F)F`, the pLD50 with Chilo suppressalis [4] is reported as less than 4.6. In the data set with Chilo suppressalis [5], the mortality came to 0%. The “inhibition (INH)” value in the data set on Chilo suppressalis [6] came to 7%.

Turning to `O=C(Nc1nnc(-c2ccc(Cl)cc2)s1)c1ccccc1[N+](=O)[O-]`, the pLD50 with Chilo suppressalis [4] is reported as less than 4.6. In addition, in the data set with Chilo suppressalis [5], the mortality came out at 0%. For the same compound, the “inhibition (INH)” value in the data set on Chilo suppressalis [6] is listed as 0%.

Take `Cc1ccccc1C(=O)Nc1nnc(-c2ccc(Cl)cc2)s1`: in the data set on Chilo suppressalis [4], the pLD50 is less than 4.6. Moreover, in the data set on Chilo suppressalis [5], the mortality was found to be 0%.

For the compound `COc1ccccc1C(=O)Nc1nnc(-c2ccc(Cl)cc2)s1`, the pLD50 in the data set with Chilo suppressalis [4] is recorded as 5.96.

In the case of `CCOc1ccccc1C(=O)Nc1nnc(-c2ccc(Cl)cc2)s1`, the pLD50 in the data set with Chilo suppressalis [4] is listed as less than 5.6. The mortality in the data set with Chilo suppressalis [5] is 10%. For the same compound, in the data set with Chilo suppressalis [6], the “inhibition (INH)” value stood at 23%.

For `CCN(CC)c1ccccc1C(=O)Nc1nnc(-c2ccc(Cl)cc2)s1`, the pLD50 in the data set on Chilo suppressalis [4] is given as less than 5. The mortality in the data set with Chilo suppressalis [5] stood at 0%. Also, the “inhibition (INH)” value in the data set on Chilo suppressalis [6] amounted to 8%.

`COc1cccc(OC)c1C(=O)Nc1nnc(-c2ccccc2)s1`: in data set [1], the logP worked out at 3.5. Besides, the mortality in the data set with Chilo suppressalis [2] was determined as 0%. In addition, in the data set with Chilo suppressalis [3], the pLD50 is less than 5.

For the compound `COc1cccc(OC)c1C(=O)Nc1nnc(-c2ccc(C)cc2)s1`, the logP in data set [1] came out at 3.85. The pLD50 in the data set on Chilo suppressalis [3] was found to be 5.

As to `COc1cccc(OC)c1C(=O)Nc1nnc(-c2ccc(Br)cc2)s1`, the logP in data set [1] is 3.96. The pLD50 in the data set on Chilo suppressalis [3] is reported as 5.57.

In data set [1], `COc1cccc(OC)c1C(=O)Nc1nnc(-c2ccc([N+](=O)[O-])cc2)s1` gave a logP of 2.54. In the data set with Chilo suppressalis [2], the mortality is given as 0%. Besides, the pLD50 in the data set on Chilo suppressalis [3] is reported as less than 5.

With `COc1cccc(OC)c1C(=O)Nc1nnc(-c2ccc(C#N)cc2)s1`, the logP in data set [1] came to 3.14.

In turn, `CCOc1ccc(-c2nnc(NC(=O)c3c(OC)cccc3OC)s2)cc1` showed a log partition coefficient (logP) in data set [1] of 3.75. In addition, the mortality with Chilo suppressalis [2] was 6%. Further, the pLD50 in the data set with Chilo suppressalis [3] was less than 5.

For the compound `O=C(NC(=O)c1c(F)cccc1F)Nc1ccc(Cl)cc1` [DIFLUBENZURON], the pLD50 with Chilo suppressalis [3] is on record as 6.64.
